Reference: the supplement of paper PMC6965134
± gives the standard deviation of the averaged measurements.

Experiment: TIMS collisional cross section (CCS, N2) of the lipid ion; higher = larger ion cross section
Details: ionization mode: positive, one isomer drawn

Row | SMILES | TIMS collisional cross section (sample type: HeLa) | TIMS collisional cross section (sample type: Liver) | TIMS collisional cross section (sample type: plasma)
1 | CCCCCC/C=C\CCCCCCCC(=O)OC[C@@H](COC(=O)CCCCCCCCCCCC)OC(=O)CCCCCCCCCCCCC [TG 13:0_14:0_16:1] (ion (formula + adduct): [C46H86O6+NH4] 1+) | 296.4 Å² | 296 Å² | 296.1 Å²
2 | CCCCCCCCCCCCCCCCC(=O)OC[C@@H](COC(=O)CCCCCCCCCCCC)OC(=O)CCCCCCCCCCCCC [TG 13:0_14:0_17:0] (ion (formula + adduct): [C47H90O6+NH4] 1+) |  | 301.8 Å² | 
3 | CCCCCCCC/C=C\CCCCCCCC(=O)OC[C@@H](COC(=O)CCCCCCCCCCCC)OC(=O)CCCCCCCCCCCCC [TG 13:0_14:0_18:1] (ion (formula + adduct): [C48H90O6+NH4] 1+) |  | 303.1 Å² | 
4 | CC/C=C\C/C=C\C/C=C\C/C=C\C/C=C\C/C=C\CCC(=O)OC[C@@H](COC(=O)CCCCCCCCCCCC)OC(=O)CCCCCCCCCCCCC [TG 13:0_14:0_22:6] (ion (formula + adduct): [C52H88O6+NH4] 1+) |  | 305.2 Å² | 
5 | CCCC/C=C\CCCCCCCC(=O)O[C@@H](COC(=O)CCCCCCC/C=C\CCCCCC)COC(=O)CCCCCCCCCCCC [TG 13:0_14:1_16:1] (ion (formula + adduct): [C46H84O6+NH4] 1+) | 293.9 Å² | 291.9 Å² | 
6 | CCCCCCCCCCCCCCCC(=O)OC[C@@H](COC(=O)CCCCCCCCCCCC)OC(=O)CCCCCCCCCCCCCC [TG 13:0_15:0_16:0] (ion (formula + adduct): [C47H90O6+NH4] 1+) | 301.7 Å² | 301.4 Å² | 
7 | CCCCCC/C=C\CCCCCCCC(=O)OC[C@@H](COC(=O)CCCCCCCCCCCC)OC(=O)CCCCCCCCCCCCCC [TG 13:0_15:0_16:1] (ion (formula + adduct): [C47H88O6+NH4] 1+) | 299.7 Å² | 299.6 Å² | 
8 | CCCCCCCCCCCCCCCC(=O)OC[C@@H](COC(=O)CCCCCCCCCCCC)OC(=O)CCCCCCCCCCCCCCC [TG 13:0_16:0_16:0] (ion (formula + adduct): [C48H92O6+NH4] 1+) | 305 Å² |  | 
9 | CCCCCCCCCCCCCCCCC(=O)OC[C@@H](COC(=O)CCCCCCCCCCCC)OC(=O)CCCCCCCCCCCCCCC [TG 13:0_16:0_17:0] (ion (formula + adduct): [C49H94O6+NH4] 1+) | 308 Å² |  | 
10 | CCCCCCCC/C=C\CCCCCCCC(=O)OC[C@@H](COC(=O)CCCCCCCCCCCC)OC(=O)CCCCCCCCCCCCCCC [TG 13:0_16:0_18:1] (ion (formula + adduct): [C50H94O6+NH4] 1+) |  |  | 309.5 Å²
11 | CCCCCC/C=C\CCCCCCCC(=O)O[C@@H](COC(=O)CCCCCCC/C=C\CCCCCCCC)COC(=O)CCCCCCCCCCCC [TG 13:0_16:1_18:1] (ion (formula + adduct): [C50H92O6+NH4] 1+) | 306.8 Å² |  | 
12 | CCCCC/C=C\C/C=C\CCCCCCCC(=O)OC[C@@H](COC(=O)CCCCCCCCCCCC)OC(=O)CCCCCCC/C=C\CCCCCC [TG 13:0_16:1_18:2] (ion (formula + adduct): [C50H90O6+NH4] 1+) |  |  | 305.3 Å²
13 | CCCCCCCCCCCCCCC(=O)OC[C@@H](COC(=O)CCCCCCCCCCCCC)OC(=O)CCCCCCCCCCCCC [TG 14:0_14:0_15:0] (ion (formula + adduct): [C46H88O6+NH4] 1+) | 297.1 Å² |  | 
14 | CCCCCCCCCCCCCCCC(=O)OC[C@@H](COC(=O)CCCCCCCCCCCCC)OC(=O)CCCCCCCCCCCCC [TG 14:0_14:0_16:0] (ion (formula + adduct): [C47H90O6+NH4] 1+) | 301.7 Å² |  | 301.3 ± 0.4 Å²
15 | CCCCCC/C=C\CCCCCCCC(=O)OC[C@@H](COC(=O)CCCCCCCCCCCCC)OC(=O)CCCCCCCCCCCCC [TG 14:0_14:0_16:1] (ion (formula + adduct): [C47H88O6+NH4] 1+) | 299.3 Å² | 299.1 Å² | 
16 | CCCCCCCCCCCCCCCCC(=O)OC[C@@H](COC(=O)CCCCCCCCCCCCC)OC(=O)CCCCCCCCCCCCC [TG 14:0_14:0_17:0] (ion (formula + adduct): [C48H92O6+NH4] 1+) | 304.6 Å² |  | 
17 | CCCCCCCC/C=C\CCCCCCCC(=O)OC[C@@H](COC(=O)CCCCCCCCCCCCC)OC(=O)CCCCCCCCCCCCC [TG 14:0_14:0_18:1] (ion (formula + adduct): [C49H92O6+NH4] 1+) |  | 305.9 Å² | 
18 | CCCC/C=C\CCCCCCCC(=O)O[C@H](COC(=O)CCCCCCCCCCCCC)COC(=O)CCCCCCCCCCCCCCC [TG 14:0_14:1_16:0] (ion (formula + adduct): [C47H88O6+NH4] 1+) |  | 299.8 Å² | 

Row | SMILES | TIMS collisional cross section (sample type: HeLa) | TIMS collisional cross section (sample type: Liver) | TIMS collisional cross section (sample type: plasma)
19 | CCCC/C=C\CCCCCCCC(=O)O[C@@H](COC(=O)CCCCCCC/C=C\CCCCCC)COC(=O)CCCCCCCCCCCCC [TG 14:0_14:1_16:1] (ion (formula + adduct): [C47H86O6+NH4] 1+) | 297.4 Å² |  | 
20 | CCCCCCCCCCCCCCC(=O)OC[C@@H](COC(=O)CCCCCCCCCCCCC)OC(=O)CCCCCCCCCCCCCC [TG 14:0_15:0_15:0] (ion (formula + adduct): [C47H90O6+NH4] 1+) |  | 302 Å² | 
21 | CCCCCCCCCCCCCCCC(=O)OC[C@@H](COC(=O)CCCCCCCCCCCCC)OC(=O)CCCCCCCCCCCCCC [TG 14:0_15:0_16:0] (ion (formula + adduct): [C48H92O6+NH4] 1+) |  | 304.9 Å² | 304.83 ± 0.05 Å²
22 | CCCCCC/C=C\CCCCCCCC(=O)OC[C@@H](COC(=O)CCCCCCCCCCCCC)OC(=O)CCCCCCCCCCCCCC [TG 14:0_15:0_16:1] (ion (formula + adduct): [C48H90O6+NH4] 1+) | 302.8 Å² |  | 302.85 ± 0.49 Å²
23 | CCCCC/C=C\CCCCCCCC(=O)O[C@H](COC(=O)CCCCCCCCCCCCC)COC(=O)CCCCCCCCCCCCCCC [TG 14:0_15:1_16:0] (ion (formula + adduct): [C48H90O6+NH4] 1+) |  | 303.1 Å² | 
24 | CCCCCCCCCCCCCCCC(=O)OC[C@@H](COC(=O)CCCCCCCCCCCCC)OC(=O)CCCCCCCCCCCCCCC [TG 14:0_16:0_16:0] (ion (formula + adduct): [C49H94O6+NH4] 1+) | 308.5 Å² | 308.4 Å² | 308.1 ± 0.22 Å²
25 | CCCCCC/C=C\CCCCCCCC(=O)OC[C@@H](COC(=O)CCCCCCCCCCCCC)OC(=O)CCCCCCCCCCCCCCC [TG 14:0_16:0_16:1] (ion (formula + adduct): [C49H92O6+NH4] 1+) | 306.03 ± 0.35 Å² | 306.1 Å² | 306 ± 0.3 Å²
26 | CCCCCCCCCCCCCCCCC(=O)OC[C@@H](COC(=O)CCCCCCCCCCCCC)OC(=O)CCCCCCCCCCCCCCC [TG 14:0_16:0_17:0] (ion (formula + adduct): [C50H96O6+NH4] 1+) |  | 311.5 Å² | 
27 | CCCCCCC/C=C\CCCCCCCC(=O)OC[C@@H](COC(=O)CCCCCCCCCCCCC)OC(=O)CCCCCCCCCCCCCCC [TG 14:0_16:0_17:1] (ion (formula + adduct): [C50H94O6+NH4] 1+) | 309.1 Å² | 309 Å² | 
28 | CCCCCCCCCCCCCCCCCC(=O)OC[C@@H](COC(=O)CCCCCCCCCCCCC)OC(=O)CCCCCCCCCCCCCCC [TG 14:0_16:0_18:0] (ion (formula + adduct): [C51H98O6+NH4] 1+) |  | 314.3 Å² | 
29 | CCCCCCCC/C=C\CCCCCCCC(=O)OC[C@@H](COC(=O)CCCCCCCCCCCCC)OC(=O)CCCCCCCCCCCCCCC [TG 14:0_16:0_18:1] (ion (formula + adduct): [C51H96O6+NH4] 1+) | 311.9 ± 0.14 Å² | 312.4 Å² | 312.07 ± 0.22 Å²
30 | CCCCC/C=C\C/C=C\CCCCCCCC(=O)OC[C@@H](COC(=O)CCCCCCCCCCCCC)OC(=O)CCCCCCCCCCCCCCC [TG 14:0_16:0_18:2] (ion (formula + adduct): [C51H94O6+NH4] 1+) |  | 308.9 Å² | 
31 | CCCCCCCCCCCCCCCCCCCC(=O)OC[C@@H](COC(=O)CCCCCCCCCCCCC)OC(=O)CCCCCCCCCCCCCCC [TG 14:0_16:0_20:0] (ion (formula + adduct): [C53H102O6+NH4] 1+) | 320.6 Å² |  | 
32 | CCCCC/C=C\C/C=C\C/C=C\C/C=C\CCCC(=O)OC[C@@H](COC(=O)CCCCCCCCCCCCC)OC(=O)CCCCCCCCCCCCCCC [TG 14:0_16:0_20:4] (ion (formula + adduct): [C53H94O6+NH4] 1+) |  |  | 314.2 Å²
33 | CC/C=C\C/C=C\C/C=C\C/C=C\C/C=C\CCCCCC(=O)OC[C@@H](COC(=O)CCCCCCCCCCCCC)OC(=O)CCCCCCCCCCCCCCC [TG 14:0_16:0_22:5] (ion (formula + adduct): [C55H96O6+NH4] 1+) | 318 Å² |  | 
34 | CC/C=C\C/C=C\C/C=C\C/C=C\C/C=C\C/C=C\CCC(=O)OC[C@@H](COC(=O)CCCCCCCCCCCCC)OC(=O)CCCCCCCCCCCCCCC [TG 14:0_16:0_22:6] (ion (formula + adduct): [C55H94O6+NH4] 1+) | 317.6 Å² |  | 
35 | CCCCCC/C=C\CCCCCCCC(=O)OC[C@@H](COC(=O)CCCCCCCCCCCCC)OC(=O)CCCCCCC/C=C\CCCCCC [TG 14:0_16:1_16:1] (ion (formula + adduct): [C49H90O6+NH4] 1+) | 302.9 ± 0.28 Å² |  | 303.5 Å²
36 | CCCCCC/C=C\CCCCCCCC(=O)O[C@H](COC(=O)CCCCCCCCCCCCC)COC(=O)CCCCCCCCCCCCCCCC [TG 14:0_16:1_17:0] (ion (formula + adduct): [C50H94O6+NH4] 1+) | 309.6 Å² |  | 309 Å²
